The values that follow come from ChEMBL document CHEMBL4715686, “Differently fluorescence-labelled dibenzodiazepinone-type muscarinic acetylcholine receptor ligands with high M2R affinity” (RSC Med Chem, 2020).

By Ki is commonly meant the dissociation constant of the complex between target and ligand, obtained from inhibition or displacement.

Assay [1] has as its target T1, Muscarinic acetylcholine receptor M1 (Homo sapiens, UniProt P11229).
T1 sequence (P11229 whole entry): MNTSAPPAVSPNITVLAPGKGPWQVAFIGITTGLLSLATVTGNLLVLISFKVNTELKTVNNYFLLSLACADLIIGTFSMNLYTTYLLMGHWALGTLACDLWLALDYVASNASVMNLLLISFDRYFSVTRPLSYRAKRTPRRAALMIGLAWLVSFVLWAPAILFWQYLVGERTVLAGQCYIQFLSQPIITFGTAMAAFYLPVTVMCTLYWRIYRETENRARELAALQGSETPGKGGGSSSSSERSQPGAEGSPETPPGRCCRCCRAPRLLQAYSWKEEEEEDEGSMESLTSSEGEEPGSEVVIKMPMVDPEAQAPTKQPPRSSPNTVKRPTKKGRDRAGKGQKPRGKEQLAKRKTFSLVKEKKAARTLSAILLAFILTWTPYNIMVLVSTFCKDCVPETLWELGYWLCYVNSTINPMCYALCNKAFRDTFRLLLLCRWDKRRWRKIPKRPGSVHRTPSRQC
In words: Displacement of [3H]NMS from human recombinant muscarinic receptor M1 expressed in CHO-K9 cell membranes measured after 3 hrs by radioligand competition binding assay. The arrangement: species or system Membrane. (Loss of bound radioactivity is the signal in a displacement assay; it reports binding, not function.)

In assay [2] the target is T2, Muscarinic acetylcholine receptor M5 (Homo sapiens, UniProt P08912).
T2 sequence (P08912 whole entry): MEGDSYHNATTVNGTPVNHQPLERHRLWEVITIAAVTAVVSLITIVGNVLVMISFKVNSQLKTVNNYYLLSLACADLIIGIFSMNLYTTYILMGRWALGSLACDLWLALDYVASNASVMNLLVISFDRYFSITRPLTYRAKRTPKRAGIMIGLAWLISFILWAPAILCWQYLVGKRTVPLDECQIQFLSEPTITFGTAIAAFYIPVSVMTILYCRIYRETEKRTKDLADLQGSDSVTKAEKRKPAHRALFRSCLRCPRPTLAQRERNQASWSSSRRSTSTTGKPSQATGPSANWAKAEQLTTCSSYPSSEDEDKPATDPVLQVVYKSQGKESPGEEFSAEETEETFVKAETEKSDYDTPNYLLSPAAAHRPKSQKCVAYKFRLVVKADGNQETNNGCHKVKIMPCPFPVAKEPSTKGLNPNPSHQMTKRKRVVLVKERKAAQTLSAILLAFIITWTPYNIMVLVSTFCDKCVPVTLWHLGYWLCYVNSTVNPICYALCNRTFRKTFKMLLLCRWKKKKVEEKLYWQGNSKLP
In words: Displacement of [3H]NMS from human recombinant muscarinic receptor M5 expressed in CHO-K9 cell membranes measured after 3 hrs by radioligand competition binding assay. Further details: species or system Membrane.

For assay [3], the target named is T3, Muscarinic acetylcholine receptor M4 (Homo sapiens, UniProt P08173).
T3 sequence (P08173 whole entry): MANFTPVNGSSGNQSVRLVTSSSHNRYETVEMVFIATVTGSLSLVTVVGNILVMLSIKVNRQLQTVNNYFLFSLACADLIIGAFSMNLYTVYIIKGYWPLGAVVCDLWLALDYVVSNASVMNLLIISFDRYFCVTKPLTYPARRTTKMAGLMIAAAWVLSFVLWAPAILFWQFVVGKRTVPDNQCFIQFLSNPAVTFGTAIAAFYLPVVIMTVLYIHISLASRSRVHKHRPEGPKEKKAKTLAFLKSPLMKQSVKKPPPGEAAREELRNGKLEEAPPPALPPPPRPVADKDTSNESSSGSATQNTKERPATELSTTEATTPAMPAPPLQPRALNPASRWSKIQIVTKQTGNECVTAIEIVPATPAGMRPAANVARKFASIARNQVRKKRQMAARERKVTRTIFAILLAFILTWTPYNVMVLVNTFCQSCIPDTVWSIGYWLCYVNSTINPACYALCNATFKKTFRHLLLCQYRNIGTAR
Description: Displacement of [3H]NMS from human recombinant muscarinic receptor M4 expressed in CHO-K9 cell membranes measured after 3 hrs by radioligand competition binding assay. The arrangement: species or system Membrane.

In assay [4] the target is T4, Muscarinic acetylcholine receptor M2 (Homo sapiens, UniProt P08172).
T4 sequence (P08172 whole entry): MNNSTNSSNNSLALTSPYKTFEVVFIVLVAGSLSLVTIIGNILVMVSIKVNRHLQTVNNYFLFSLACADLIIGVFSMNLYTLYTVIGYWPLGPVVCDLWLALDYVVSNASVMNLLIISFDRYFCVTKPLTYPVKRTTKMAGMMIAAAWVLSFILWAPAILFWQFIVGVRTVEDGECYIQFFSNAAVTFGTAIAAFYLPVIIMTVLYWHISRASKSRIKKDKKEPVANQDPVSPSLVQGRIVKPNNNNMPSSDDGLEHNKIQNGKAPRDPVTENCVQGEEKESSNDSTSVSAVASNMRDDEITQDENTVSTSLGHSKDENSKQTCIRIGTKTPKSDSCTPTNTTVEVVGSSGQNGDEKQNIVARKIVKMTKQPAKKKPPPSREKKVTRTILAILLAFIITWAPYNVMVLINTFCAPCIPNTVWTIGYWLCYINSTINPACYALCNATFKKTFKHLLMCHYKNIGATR
In words: Binding affinity to human muscarinic M2 receptor expressed in CHO-K9 cells assessed as unspecific binding at Kd incubated in dark at 22 degree C for 2 hrs in presence of atropine by FACSCantoII flow cytometric saturation binding study relative to control. The assay is classed as cell-based.

Assay [5] deals with Muscarinic acetylcholine receptor M3 (Homo sapiens, UniProt P20309). In words: Displacement of [3H]NMS from human recombinant muscarinic receptor M3 expressed in CHO-K9 cell membranes measured after 3 hrs by radioligand competition binding assay. Further details: species or system Membrane.
The target of assay [6] is T5, Muscarinic acetylcholine receptor M2 (Homo sapiens, UniProt P08172). In words: Displacement of [3H]NMS from human recombinant muscarinic receptor M2 expressed in CHO-K9 cell membranes measured after 3 hrs by radioligand competition binding assay. The arrangement: species or system Membrane.
In assay [7] the target is T4, Muscarinic acetylcholine receptor M2. In words: Binding affinity to human muscarinic M2 receptor expressed in CHO-K9 cells assessed as unspecific binding at Kd incubated in dark at 22 degree C for 2 hrs in presence of atropine by FACSCalibur flow cytometric saturation binding study relative to control. In kind it is cell-based. In general terms: A flow cytometer gives signals particle by particle.

Assay [8] concerns the target T3, Muscarinic acetylcholine receptor M4. In words: Displacement of [3H]-NMS from muscarinic M4 receptor (unknown origin) expressed in NG108-15 cells by scintillation counting analysis. The assay is classed as cell-based.
Assay [9] addresses T5, Muscarinic acetylcholine receptor M2. Description: Displacement of [3H]-NMS from muscarinic M2 receptor (unknown origin) expressed in A9 cells by scintillation counting analysis. The assay is classed as cell-based.

Structures are written as SMILES.

Muscarinic acetylcholine receptor M3, sequence (P20309 whole entry): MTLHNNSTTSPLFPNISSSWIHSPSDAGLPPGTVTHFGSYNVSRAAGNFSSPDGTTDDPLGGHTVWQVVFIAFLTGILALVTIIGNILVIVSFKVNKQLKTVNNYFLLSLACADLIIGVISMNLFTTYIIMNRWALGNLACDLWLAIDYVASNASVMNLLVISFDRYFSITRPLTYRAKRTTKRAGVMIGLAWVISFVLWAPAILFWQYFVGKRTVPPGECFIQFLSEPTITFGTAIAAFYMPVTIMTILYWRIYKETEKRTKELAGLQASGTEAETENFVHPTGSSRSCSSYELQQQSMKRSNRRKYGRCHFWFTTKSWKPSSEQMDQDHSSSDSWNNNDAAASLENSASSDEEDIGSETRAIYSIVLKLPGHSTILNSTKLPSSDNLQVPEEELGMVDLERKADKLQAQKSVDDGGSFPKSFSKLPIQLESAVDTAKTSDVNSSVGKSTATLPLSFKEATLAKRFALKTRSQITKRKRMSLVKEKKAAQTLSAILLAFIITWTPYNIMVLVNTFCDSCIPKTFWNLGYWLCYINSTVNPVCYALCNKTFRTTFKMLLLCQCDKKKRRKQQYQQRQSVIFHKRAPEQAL

`Cc1cc(/C=C/c2cc3c4c(c2)CCCN4CCC3)cc(C)[n+]1CCN1CCN(CCCCC2CCN(CC(=O)N3c4ccccc4NC(=O)c4ccccc43)CC2)CC1`: the Ki in assay [1] was 4.79 nM; in assay [2] it was 126 nM; in [3], 2.69 nM; in [5], 63.1 nM; in assay [6], 0.955 nM. In addition, the Kd in assay [4] (read-out: Kd) is 1.9 nM; in [4] (read-out: pKd (converted)), 0.646 nM.

On to `Cc1cc(/C=C/C=C/c2ccc(N(C)C)cc2)cc(C)[n+]1CCN1CCN(CCCCC2CCN(CC(=O)N3c4ccccc4NC(=O)c4ccccc43)CC2)CC1`, for which the Kd in [4] (read-out: Kd) is 1.4 nM; in assay [4] (read-out: pKd (converted)), 2.34 nM.

For `CN(C)c1ccc2c(-c3ccc(C(=O)NCCN4CCN(CCCCC5CCN(CC(=O)N6c7ccccc7NC(=O)c7ccccc76)CC5)CC4)cc3C(=O)[O-])c3ccc(=[N+](C)C)cc-3oc2c1`, the Ki in [1] was 2.57 nM; in assay [2], 178 nM; in assay [3], 0.977 nM; in assay [5], 81.3 nM; in assay [6], 0.24 nM. In addition, the results for the Kd in [7] (read-out: Kd) and in assay [7] (read-out: pKd (converted)) were 0.6 nM and 1.38 nM, respectively.

Regarding `CCN(CC)CCCCC1CCN(CC(=O)N2c3ccccc3NC(=O)c3ccccc32)CC1`, the inhibition constant Ki in [8] is 2 nM; in assay [9], 0.316 nM.

In the case of `Cc1scc2c1N(C(=O)CN1CCN(CCCCCCCCCCNC(=O)Cc3ccc4c(c3)C(C)(C)C3=C5C=C6C7=[N+](CCC6OC5CCN34)c3ccc(S(=O)(=O)[O-])cc3C7(C)C)CC1)c1ccccc1NC2=O` (stereo not given), the Ki is 0.0316 nM in assay [1] and 0.0398 nM in assay [6].

For `Cc1cc(/C=C/c2cc3c4c(c2)CCCN4CCC3)cc(C)[n+]1CCNC(=O)CCc1cn(CCCCC2CCN(CC(=O)N3c4ccccc4NC(=O)c4ccccc43)CC2)cn1`, the Ki in [1] is 7.08 nM; in [2] it was 40.7 nM; in assay [3] it was 2.63 nM; in assay [5], 69.2 nM; in assay [6], 1.35 nM. Also, the Kd in [4] (read-out: Kd) was 3.8 nM; in assay [4] (read-out: pKd (converted)), 2 nM.

`O=C(CCCCCNC(=O)COc1ccc(/C=C/C2=[N+]3C(=Cc4ccc(-c5cccs5)n4[B-]3(F)F)C=C2)cc1)NCCNC(=O)CCc1cn(CCCCC2CCN(CC(=O)N3c4ccccc4NC(=O)c4ccccc43)CC2)cn1`: the Ki in assay [1] is 1 nM; in assay [2] it was 10 nM; in assay [3], 0.417 nM; in assay [5], 37.2 nM; in assay [6], 0.692 nM. For the same compound, the values for the Kd in [4] (read-out: Kd) and in assay [4] (read-out: pKd (converted)) were 4.5 nM and 3.89 nM, respectively.

In the case of `CN(C)c1ccc2c(-c3ccc(C(=O)NCCNC(=O)CCc4cn(CCCCC5CCN(CC(=O)N6c7ccccc7NC(=O)c7ccccc76)CC5)cn4)cc3C(=O)[O-])c3ccc(=[N+](C)C)cc-3oc2c1`, the Ki in [1] is 6.17 nM; in assay [2] it was 275 nM; in assay [3], 3.72 nM; in assay [5] it was 129 nM; in assay [6], 1.78 nM. The Kd in assay [4] (read-out: Kd) is 2.4 nM; in assay [4] (read-out: pKd (converted)), 4.37 nM.

For `Cc1scc2c1N(C(=O)CN1CCN(CCCCCCCCCCNC(=O)c3ccc(-c4c5ccc(=N)c(S(=O)(=O)O)c-5oc5c(S(=O)(=O)O)c(N)ccc45)c(C(=O)O)c3)CC1)c1ccccc1NC2=O`, the results for the Ki in [1] and in assay [6] were 0.501 nM and 1.58 nM, respectively.

For `NCCN1CCN(CCCCC2CCN(CC(=O)N3c4ccccc4NC(=O)c4ccccc43)CC2)CC1`, in assay [6], the Ki was 0.562 nM.

For the compound `Cc1cc(/C=C/C=C/c2ccc(N(C)C)cc2)cc(C)[n+]1CCNC(=O)CCc1cn(CCCCC2CCN(CC(=O)N3c4ccccc4NC(=O)c4ccccc43)CC2)cn1`, the Ki in [1] was 4.9 nM; in [2], 70.8 nM; in assay [3], 4.27 nM; in assay [5] it was 85.1 nM; in assay [6], 0.912 nM. Further, the Kd in assay [4] (read-out: Kd) came out at 2 nM.
